Experimental data taken from patent US10807992B2, “Single enantiomer antiparasitic compounds” (priority 2017, dated 2020).

Experiments:
Ctenocephalides felis [1] = test: In vitro ingestion activity against fleas (artificial feeding, bovine blood); settings: for mortality at 0.003 ppm: Trial 3, dose 0.003 ppm; for mortality at 0.012 ppm: Trial 3, dose 0.012 ppm; for mortality at 0.049 ppm: Trial 3, dose 0.049 ppm; for mortality at 0.2 ppm: Trial 3, dose 0.20 ppm; for mortality at 0.78 ppm: Trial 3, dose 0.78 ppm; for mortality at 3.125 ppm: Trial 3, dose 3.125 ppm; for mortality at 12.5 ppm: Trial 3, dose 12.5 ppm; for mortality at 50 ppm: Trial 3, dose 50 ppm
Method: (§1) Ctenocephalides felis (Avista Pharma, Inc., RTP, NC), 1-7days post hatch, held in an environmental chamber at 24° C., 85% humidity.
For flea ingestion tests, serial dilutions of the compound stock were performed using DMSO to achieve the desired range for EC50 and EC90 determination. An aliquot of each compound dilution was added to organic bovine blood with a final DMSO concentration of 0.5% and placed in an artificial feeding container.
(§2) Compounds tested were C1 racemate, the C1 (R) enantiomer, and the C1 (S) enantiomer. For Trial 3, the C1 (R) enantiomer and the C1 (S) enantiomer were further chiral purified to achieve >99% purity.
(§3) For both contact and ingestion assays, ten newly emerged unfed adult fleas, 0-7 days old Ctenocephalides felis, from a laboratory colony, were aspirated into each vial or cage. The test vials for contact assays were held in an environmental chamber at 24° C., 80% humidity with light/dark cycles (12 hours each). The cages for flea ingestion assays were held in a temperature-controlled artificial feeding apparatus to allow continual access to organic bovine blood containing the desired concentration of compound. Fresh aliquots of compound-spiked bovine blood were provided daily for the duration of the study.
(§4) Fleas were evaluated for percent mortality at various time points between 2 hours and 48 hours post infestation. Fleas showing normal movement and/or jumping ability were considered viable and those showing no movement after tapping the vials were scored as dead.

Ctenocephalides felis [2] = test: In vitro contact activity against fleas (coated substrate); settings: for mortality at 0.006 ppm: Trial 3, dose 0.006 ppm; for mortality at 0.024 ppm: Trial 3, dose 0.024 ppm; for mortality at 0.098 ppm: Trial 3, dose 0.098 ppm; for mortality at 0.39 ppm: Trial 3, dose 0.39 ppm; for mortality at 1.56 ppm: Trial 3, dose 1.56 ppm; for mortality at 6.25 ppm: Trial 3, dose 6.25 ppm; for mortality at 25 ppm: Trial 3, dose 25 ppm; for mortality at 100 ppm: Trial 3, dose 100 ppm
Method: as §1
For flea contact tests, vial caps were pre-drilled with a single hole in the center of each cap to allow air exchange. A filter paper (Whatman Grade 540 2.1 cm) was placed in the lid of each vial. Pipe cleaners cut to 0.5 inches were inserted in each test vial. An aliquot was taken from each compound stock and added to an acetone/triton solution to achieve the desired top concentrations for the study. Serial dilutions were conducted from the top dose (i.e. 100 ppm) to achieve the desired concentration for EC50 and EC90 determination. The final DMSO concentration was 0.5%. A 75 μL aliquot of each compound formulation was added to each 0.5 inch pipe cleaner contained in the treatment vial. The vials were loosely capped and allowed to dry for a minimum of four hours in a chemical fume hood.
as §2, §3, §4

O=C(CC(F)(F)F)N1CC2(C1)OCc1cc(C3=NS[C@@](c4cc(Cl)c(F)c(Cl)c4)(C(F)(F)F)C3)ccc12 [C1 (S) enantiomer, (S)-1-[6-[5-(3,5-dichloro-4-fluoro-phenyl)-5-(trifluoromethyl)-4H-isothiazol-3-yl]spiro[1H-isobenzofuran-3,3′-azetidine]-1′-yl]-3,3,3-trifluoro-propan-1-one]
mortality at 0.003 ppm (Ctenocephalides felis [1]; 6 h, Rep1): 0%
mortality at 0.003 ppm (Ctenocephalides felis [1]; 6 h, Rep2): 0%
mortality at 0.012 ppm (Ctenocephalides felis [1]; 6 h, Rep1): 0%
mortality at 0.012 ppm (Ctenocephalides felis [1]; 6 h, Rep2): 0%
mortality at 0.049 ppm (Ctenocephalides felis [1]; 6 h, Rep1): 0%
mortality at 0.049 ppm (Ctenocephalides felis [1]; 6 h, Rep2): 0%
mortality at 0.2 ppm (Ctenocephalides felis [1]; 6 h, Rep1): 10%
mortality at 0.2 ppm (Ctenocephalides felis [1]; 6 h, Rep2): 20%
mortality at 0.78 ppm (Ctenocephalides felis [1]; 6 h, Rep1): 80%
mortality at 0.78 ppm (Ctenocephalides felis [1]; 6 h, Rep2): 70%
mortality at 3.125 ppm (Ctenocephalides felis [1]; 6 h, Rep1): 100%
mortality at 3.125 ppm (Ctenocephalides felis [1]; 6 h, Rep2): 60%
mortality at 12.5 ppm (Ctenocephalides felis [1]; 6 h, Rep1): 100%
mortality at 12.5 ppm (Ctenocephalides felis [1]; 6 h, Rep2): 100%
mortality at 50 ppm (Ctenocephalides felis [1]; 6 h, Rep1): 100%
mortality at 50 ppm (Ctenocephalides felis [1]; 6 h, Rep2): 100%
mortality at 0.003 ppm (Ctenocephalides felis [1]; 24 h, Rep1): 0%
mortality at 0.003 ppm (Ctenocephalides felis [1]; 24 h, Rep2): 0%
mortality at 0.012 ppm (Ctenocephalides felis [1]; 24 h, Rep1): 0%
mortality at 0.012 ppm (Ctenocephalides felis [1]; 24 h, Rep2): 0%
mortality at 0.049 ppm (Ctenocephalides felis [1]; 24 h, Rep1): 20%
mortality at 0.049 ppm (Ctenocephalides felis [1]; 24 h, Rep2): 10%
mortality at 0.2 ppm (Ctenocephalides felis [1]; 24 h, Rep1): 10%
mortality at 0.2 ppm (Ctenocephalides felis [1]; 24 h, Rep2): 50%
mortality at 0.78 ppm (Ctenocephalides felis [1]; 24 h, Rep1): 100%
mortality at 0.78 ppm (Ctenocephalides felis [1]; 24 h, Rep2): 90%
mortality at 3.125 ppm (Ctenocephalides felis [1]; 24 h, Rep1): 100%
mortality at 3.125 ppm (Ctenocephalides felis [1]; 24 h, Rep2): 80%
mortality at 12.5 ppm (Ctenocephalides felis [1]; 24 h, Rep1): 100%
mortality at 12.5 ppm (Ctenocephalides felis [1]; 24 h, Rep2): 100%
mortality at 50 ppm (Ctenocephalides felis [1]; 24 h, Rep1): 100%
mortality at 50 ppm (Ctenocephalides felis [1]; 24 h, Rep2): 100%
mortality at 0.003 ppm (Ctenocephalides felis [1]; 48 h, Rep1): 0%
mortality at 0.003 ppm (Ctenocephalides felis [1]; 48 h, Rep2): 0%
mortality at 0.012 ppm (Ctenocephalides felis [1]; 48 h, Rep1): 0%
mortality at 0.012 ppm (Ctenocephalides felis [1]; 48 h, Rep2): 0%
mortality at 0.049 ppm (Ctenocephalides felis [1]; 48 h, Rep1): 20%
mortality at 0.049 ppm (Ctenocephalides felis [1]; 48 h, Rep2): 20%
mortality at 0.2 ppm (Ctenocephalides felis [1]; 48 h, Rep1): 30%
mortality at 0.2 ppm (Ctenocephalides felis [1]; 48 h, Rep2): 70%
mortality at 0.78 ppm (Ctenocephalides felis [1]; 48 h, Rep1): 100%
mortality at 0.78 ppm (Ctenocephalides felis [1]; 48 h, Rep2): 90%
mortality at 3.125 ppm (Ctenocephalides felis [1]; 48 h, Rep1): 100%
mortality at 3.125 ppm (Ctenocephalides felis [1]; 48 h, Rep2): 100%
mortality at 12.5 ppm (Ctenocephalides felis [1]; 48 h, Rep1): 100%
mortality at 12.5 ppm (Ctenocephalides felis [1]; 48 h, Rep2): 100%
mortality at 50 ppm (Ctenocephalides felis [1]; 48 h, Rep1): 100%
mortality at 50 ppm (Ctenocephalides felis [1]; 48 h, Rep2): 100%
mortality at 0.006 ppm (Ctenocephalides felis [2]; 6 h, Rep1): 0%
mortality at 0.006 ppm (Ctenocephalides felis [2]; 6 h, Rep2): 0%
mortality at 0.024 ppm (Ctenocephalides felis [2]; 6 h, Rep1): 0%
mortality at 0.024 ppm (Ctenocephalides felis [2]; 6 h, Rep2): 0%
mortality at 0.098 ppm (Ctenocephalides felis [2]; 6 h, Rep1): 0%
mortality at 0.098 ppm (Ctenocephalides felis [2]; 6 h, Rep2): 0%
mortality at 0.39 ppm (Ctenocephalides felis [2]; 6 h, Rep1): 0%
mortality at 0.39 ppm (Ctenocephalides felis [2]; 6 h, Rep2): 0%
mortality at 1.56 ppm (Ctenocephalides felis [2]; 6 h, Rep1): 0%
mortality at 1.56 ppm (Ctenocephalides felis [2]; 6 h, Rep2): 0%
mortality at 6.25 ppm (Ctenocephalides felis [2]; 6 h, Rep1): 0%
mortality at 6.25 ppm (Ctenocephalides felis [2]; 6 h, Rep2): 0%
mortality at 25 ppm (Ctenocephalides felis [2]; 6 h, Rep1): 0%
mortality at 25 ppm (Ctenocephalides felis [2]; 6 h, Rep2): 0%
mortality at 100 ppm (Ctenocephalides felis [2]; 6 h, Rep1): 0%
mortality at 100 ppm (Ctenocephalides felis [2]; 6 h, Rep2): 0%
mortality at 0.006 ppm (Ctenocephalides felis [2]; 24 h, Rep1): 0%
mortality at 0.006 ppm (Ctenocephalides felis [2]; 24 h, Rep2): 0%
mortality at 0.024 ppm (Ctenocephalides felis [2]; 24 h, Rep1): 0%
mortality at 0.024 ppm (Ctenocephalides felis [2]; 24 h, Rep2): 0%
mortality at 0.098 ppm (Ctenocephalides felis [2]; 24 h, Rep1): 0%
mortality at 0.098 ppm (Ctenocephalides felis [2]; 24 h, Rep2): 0%
mortality at 0.39 ppm (Ctenocephalides felis [2]; 24 h, Rep1): 0%
mortality at 0.39 ppm (Ctenocephalides felis [2]; 24 h, Rep2): 0%
mortality at 1.56 ppm (Ctenocephalides felis [2]; 24 h, Rep1): 0%
mortality at 1.56 ppm (Ctenocephalides felis [2]; 24 h, Rep2): 0%
mortality at 6.25 ppm (Ctenocephalides felis [2]; 24 h, Rep1): 10%
mortality at 6.25 ppm (Ctenocephalides felis [2]; 24 h, Rep2): 10%
mortality at 25 ppm (Ctenocephalides felis [2]; 24 h, Rep1): 30%
mortality at 25 ppm (Ctenocephalides felis [2]; 24 h, Rep2): 20%
mortality at 100 ppm (Ctenocephalides felis [2]; 24 h, Rep1): 100%
mortality at 100 ppm (Ctenocephalides felis [2]; 24 h, Rep2): 100%
mortality at 0.006 ppm (Ctenocephalides felis [2]; 48 h, Rep1): 0%
mortality at 0.006 ppm (Ctenocephalides felis [2]; 48 h, Rep2): 0%
mortality at 0.024 ppm (Ctenocephalides felis [2]; 48 h, Rep1): 0%
mortality at 0.024 ppm (Ctenocephalides felis [2]; 48 h, Rep2): 0%
mortality at 0.098 ppm (Ctenocephalides felis [2]; 48 h, Rep1): 10%
mortality at 0.098 ppm (Ctenocephalides felis [2]; 48 h, Rep2): 10%
mortality at 0.39 ppm (Ctenocephalides felis [2]; 48 h, Rep1): 10%
mortality at 0.39 ppm (Ctenocephalides felis [2]; 48 h, Rep2): 0%
mortality at 1.56 ppm (Ctenocephalides felis [2]; 48 h, Rep1): 10%
mortality at 1.56 ppm (Ctenocephalides felis [2]; 48 h, Rep2): 30%
mortality at 6.25 ppm (Ctenocephalides felis [2]; 48 h, Rep1): 70%
mortality at 6.25 ppm (Ctenocephalides felis [2]; 48 h, Rep2): 30%
mortality at 25 ppm (Ctenocephalides felis [2]; 48 h, Rep1): 100%
mortality at 25 ppm (Ctenocephalides felis [2]; 48 h, Rep2): 100%
mortality at 100 ppm (Ctenocephalides felis [2]; 48 h, Rep1): 100%
mortality at 100 ppm (Ctenocephalides felis [2]; 48 h, Rep2): 100%
